According to patent publication US20180098950A1, “INHIBITORS OF ABETA AND SYNUCLEIN AGGREGATION” (The Feinstein Institute For Medical Research, priority 2006, published 2018):
Values joined by “and” are separate entries in the source; they are usually repeats but may differ in a detail not shown here. Equal values may be shown once. “Also recorded” adds a separate entry of the source. Read-outs that look alike come from different tables or passages of the source.

What was measured:
Aβ42 [1] = target: T1, Aβ42 (Homo sapiens, UniProt P05067); experiment: Anti-oligomer antibody ELISA, Aβ42
T1 construct: less abundant 42-amino acid form (Aβ42)
T1 sequence (P05067 672-713 limits assumed): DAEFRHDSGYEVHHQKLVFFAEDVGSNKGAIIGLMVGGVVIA

[2] = system: APP-expressing TgCRND8 mice; experiment: Aβ plaque burden by immunohistochemistry and image analysis in TgCRND8 mice; type: in vivo, mouse; details: 8 mg/kg i.p. twice a week for 8 weeks, vs vehicle
Procedure: Animals. All animal procedures were approved by the office of the district president and the institutional animal care and use committee for the University of Munster. We used the TgCRND8 mouse line (courtesy of David Westaway, University of Toronto, Toronto, Ontario, Canada). TgCRND8 mice encode a double mutant form of amyloid precursor protein 695 (KM670/671 NL+V717F) under the control of the PrP gene promoter (Chishti et al., 2001). Thioflavine S-positive Aβ amyloid deposits are present at 3 months, with dense-cored plaques and neuritic pathology evident from 5 months of age.
(§1) Drug treatment of TgCRND8 mice. APP transgenic TgCRND8 mice at 4 months old received twice a week an i.p. injection of 200 μl containing 200 μg CNI-1493 (8 mg/kg) for 8 weeks. There were four animals in each treatment group. Animals were housed singly in individual cages. At the end of the experimental period, animals were killed by decapitation. The brain was dissected and the hemispheres separated along the midline. One hemisphere was fixed in 4% buffered formaldehyde for 24 h followed by dehydration and paraffin embedding. The other hemisphere was immediately snap-frozen in liquid nitrogen and kept at −80° C.
Immunohistochemistry. Three pairs of 2 μm sagittal brain sections of each transgenic animal were stained for Aβ immunoreactivity. The pairs (10 μm distance) were situated 100 μm, 200 μm and 300 μm lateral from the mid-sagittal fissure. All slices were pretreated with formic acid and automatically stained in a TechMate Instrument (Dako Cytomation, Hamburg, Germany) with 6F/3D anti-Aβ monoclonal antibody to residues 8-17 (Dako, 1:100). For further steps, the Dako StreptABC complex-horseradish peroxidase conjugated “Duet” anti mouse/rabbit antibody kit was used and developed with 3, 3′-diaminobenzidine (DAB) as chromogen. Counterstaining was performed with hematoxylin. All slides were stained in two consecutive procedures making sure that brains of both experimental groups were equally distributed in both procedures.
Image analysis. To quantify Aβ plaque burden, cortices and hippocampi of all stained sections were digitalized by a ColorView II, 3, 3 Mega Pixel CCD camera under constant light and filter settings. Color images were converted to greyscale to obtain best contrast between positive immunoreactivity and background. A constant threshold was chosen for all images to detect immunoreactive staining.
Morphometric measurements were performed by image analysis software “SIS analysis Auto Software 3.2” (Soft Imaging System GmbH, http://www.soft-imaging.org/). Total number and surface of plaques was related to the total area analyzed.

primary neurons = experiment: Aβ toxicity in primary neurons; type: cell-based
Text: To determine whether the CNI-1493-treated form of Aβ is toxic, Aβ that had been pretreated with, or without, CNI-1493 was combined with SY5Y neuroblastoma cells. Toxicity was monitored using MTT (thiazolyl blue) reduction (mitochondrial succinate dehydrogenase activity) and lactate dehydrogenase activity (LDH). The MTT and LDH assays correlated with each other. […] Additionally, the protective effect of CNI-1493 was examined in similar assays using primary neurons.

Aβ42 [3] = target: T1, Aβ42; experiment: Aβ oligomer ELISA with various concentrations of CNI-1493; details: Aβ42 with increasing concentrations of CNI-1493
Text: Aβ42 was combined with various concentrations of CNI-1493 and Aβ oligomers were quantified by ELISA using Aβ oligomer-specific antibodies.

Aβ40 = target: T2, Aβ40 (Homo sapiens, UniProt P05067); experiment: Anti-oligomer antibody ELISA, Aβ40
T2 construct: The 40-amino acid form (Aβ340) is the most abundantly produced Aβ peptide
T2 sequence (P05067 672-711 limits assumed): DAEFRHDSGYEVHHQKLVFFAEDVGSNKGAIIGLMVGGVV

Aβ42 [4] = target: T1, Aβ42; experiment: Electron microscopy of Aβ42 oligomer fibrilization; details: Aβ42 oligomers with vs without CNI-1493
F4/80 antigen = experiment: Western blot of F4/80 (microglial activation) in brain of treated TgCRND8 mice; type: in vivo, mouse; details: 8 mg/kg i.p. twice a week for 8 weeks, vs control
Procedure: as §1
Biochemical analysis. Half of the brain was weighed and homogenized in an appropriate volume of T-PER (Perbio, Bonn, Germany) in accordance to the guidelines of the manufacturer. Lysate protein concentration was measured by BCA kit (Perbio). 15-60 μg protein per sample was loaded onto a pre-cast NuPAGE Novex 4-12% Bis-Tris gel and separated using the Novex electrophoresis system (Invitrogen, Karsruhe, Germany). Subsequently, the proteins were transferred onto nitrocellulose membranes (Invitrogen) using the XCell II™ blot (Invitrogen). The immobilized proteins were visualized using MemCode reversible protein staining kit (Perbio). […] Equal protein loading of all membranes was assessed by reprobing with monoclonal antibodies against GAPDH (Acris, Hiddenhausen, Germany).

synuclein = synuclein (Homo sapiens, UniProt P37840); experiment: Anti-oligomer antibody ELISA, synuclein
Procedure: The ability of CNI-1493 to prevent aggregation of synuclein was tested by determining the recognition of synuclein by an anti-oligomer antibody (gift of Dr. C. Glabe, University of California at Irvine) in an ELISA assay.

[5] = system: N2a cells expressing wild type APP695; experiment: APP processing analysis in N2a cells; type: cell-based; details: 24 h treatment
Procedure: APP processing analysis in N2a cells. APP695-transfected N2a cells (Marambaud et al., 2005) were grown in 1:1 DMEM/Opti-MEM supplemented with 5% FBS, penicillin and streptomycin, and 0.2 mg/ml G418. Cells were treated at confluency for 24 h with the indicated concentrations of CNI-1493. Medium was then changed and treatments were continued for another 2 h to allow Aβ secretion. Twenty microliters of conditioned medium were electrophoresed on 16.5% Tris-Tricine gels and transferred onto […] nitrocellulose membranes. Membranes were then microwaved for 5 min in PBS, blocked in 5% fat-free milk in TBS, and incubated with 6E10 (Signet, 1:1000 in Pierce SuperBlock) overnight at 4° C. Cells were washed with PBS and solubilized in ice-cold HEPES buffer (25 mM HEPES, pH 7.4, 150 mM NaCl, 1× Complete protease inhibitor cocktail, Roche) containing 1% SDS. Ten micrograms of extracts were analyzed by western blot with 6E10, R1 (anti-APP C-terminal domain, reference 21), and LN27 (anti-APP1-200, Zymed).

SMILES | recognition by anti-oligomer antibody (aggregation) (Aβ42 [1]) | recognition by anti-oligomer antibody (aggregation) (Aβ42 [1]; listed as CNI-1492) | reduction of plaque area (square micrometers per area of interest in square mm) ([2]; cortex) [%] | reduction of plaque number (plaques per area of interest in square mm) ([2]; cortex) [%] | reduction of plaque number (plaques per area of interest in square mm) ([2]; hippocampus) [%] | reduction of plaque area (square micrometers per area of interest in square mm) ([2]; hippocampus, 8 mg/kg) | protection from Aβ toxicity (primary neurons) | Aβ oligomers by ELISA (final OD) (Aβ42 [3]) | recognition by anti-oligomer antibody (aggregation) (Aβ40) | recognition by anti-oligomer antibody (aggregation) (Aβ40; listed as CNI-1492) | formation of fibrillar aggregates (electron microscopy) (Aβ42 [4]) | microglial activation, F4/80 expression in brain (western blot) (F4/80 antigen) | recognition by anti-oligomer antibody (aggregation) (synuclein) | recognition by anti-oligomer antibody (aggregation) (synuclein; listed as CNI-1492) | full length APP production (LN27) [5] | β- or γ-secretase cleavage of APP (C99, C83 fragments) [5] | total Aβ secreted into the medium (western blot, 6E10) ([5]; then medium change and continued treatment)
CC(=NNC(=N)N)c1cc(NC(=O)CCCCCCCCC(=O)Nc2cc(C(C)=NNC(=N)N)cc(C(C)=NNC(=N)N)c2)cc(C(C)=NNC(=N)N)c1.Cl.Cl.Cl.Cl [CNI-1493, N,N′-bis(3,5-diacetylphenyl)decanediamide tetrakis(amidinohydrazone) tetrahydrochloride] | prevents aggregation | reduced recognition by the antibody | 70 | 57 | 60 | 87% and 86% | protected the neurons from Aβ toxicity | reduced the final OD in the ELISA; also recorded: reduction in recognition of Aβ oligomers | prevents aggregation | reduced recognition by the antibody | do not form the fibrillar aggregates; also recorded: inhibited Aβ42 oligomer fibrilization | significant reduction in microglial activation; also recorded: decrease of F4/80 signal; also recorded: decline of F4/80 in all CNI-1493 animals | prevents aggregation | reduced recognition by the antibody | not accompanied by reduced levels of APP production | no effect | profound dose-dependent decrease of total Aβ accumulation; also recorded: dose-dependent, dramatic reduction; also recorded: profound dose-dependent decrease of total Aβ secretion
N=C(N)c1ccc(OCCCCCOc2ccc(C(=N)N)cc2)cc1 [pentamidine, reference compound] | reduced recognition by the antibody |  |  |  |  |  |  |  | reduced recognition by the antibody |  |  |  | reduced recognition by the antibody |  |  |  | 
